PubChem BioAssay AID179 (DTP/NCI, 2004)
Values joined by “and” are separate entries in the source; they are usually repeats but may differ in a detail not shown here. Equal entries are not always repeated. Active and inactive are the calls of the source.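 How the source made its calls: active means compounds giving half or more protection of infected cells from virus-caused growth loss, again on retest; inactive means the rest.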 Where a SMILES comes first, the peptide text is derived from it. The star is where a group is joined. Bn = c1ccc(C*)cc1

Tested on: CEM cells HIV-1 protection, formazan growth assay
Experiment: NCI AIDS Antiviral Assay
Details: for IC50: measured here: growth of uninfected CEM cells
Method in brief: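 Category rules: moderately active means at least 50% protection on retest, and confirmed active means 100% protection reproducibly. The underlying data came from a formazan growth assay in HIV-1-infected CEM cells.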

Compound	EC50	IC50	outcome
Cc1[nH]c2ccccc2c1C1Cc2ccccc2N1C(=O)/C=C/C(=O)O (centres undefined)	> 724 µM	132 µM	–
O=c1[nH]oc2ccccc12	> 200 µM	> 200 µM	–
CC12CCC(C=C1N1CCCCC1)C(C)(C)O2 (centres undefined)	> 1070 µM	> 1070 µM	–
CC(C)CC(C[C@@H](O)[C@H](Cc1ccccc1)NC(=O)O[C@H]1CCOC1)S(=O)(=O)c1ccccc1 (some centres undefined)	38.9 µM	112 µM	–
CN(/N=C\c1ccc2ccccc2c1)C1=NCCCCN1	> 200 µM	28.8 µM	–
CC1=C(/C=C/C(C)=C/C=C(C(=O)O)\C(C)=C\C(=O)O)C(C)(C)CCC1	> 200 µM	> 200 µM	–
Nc1ccc(/C=C/c2ccc(N=Nc3ccc(/C=C/c4ccc(N=Nc5ccc(/C=C/c6ccc(N=Nc7ccc(/C=C/c8ccc(N)cc8S(=O)(=O)O)c(S(=O)(=O)O)c7)cc6S(=O)(=O)O)c(S(=O)(=O)O)c5)cc4S(=O)(=O)O)c(S(=O)(=O)O)c3)cc2S(=O)(=O)O)c(S(=O)(=O)O)c1	1.78 µM	186 µM	–
COc1ccc(N=C2SCC(=O)N2NC(=O)CN2C(=O)c3ccccc3C2=O)cc1	> 20.4 µM	17.4 µM	–
CC1=C(c2cc(C(=O)Nc3ccc(Cl)cc3)nc(=S)[nH]2)Sc2ccccc2N1	> 85.1 µM	> 85.1 µM	–
CC1=NOC(=O)C12CC2	> 200 µM	> 200 µM	–
CC1=CC(=O)N2C(OC[C@@H]2c2ccccc2)O1 (some centres undefined)	> 562 µM	> 562 µM	–
CCN(CC)CCNc1ccc(CO)c2oc3ccccc3c(=O)c12	> 363 µM	2.4 µM	–
CCOC(=O)/C(C#N)=C/c1ccc(Cl)cc1	> 110 µM	> 110 µM	–
CC(C)(CC(O)C#N)/[N+]([O-])=[N+](\[O-])C(C)(C)CC(O)C#N (centres undefined)	–	–	inactive
Cc1ccc(S(=O)(=O)N2CCN(S(=O)(=O)c3ccc(C)cc3)Cc3ccccc3C2)cc1	> 200 µM	> 200 µM	–
CCCCN(CCCC)C(=Nc1ccccc1)N(CCCC)CCCC	> 138 µM	24 µM	–
COc1cc2cnc3c4cc(OC(C)C)c(OC)cc4ccc3c2cc1OC	–	–	inactive
CC1C(c2ccc3c(c2)OCO3)c2cc3c(cc2OC1N1CCOCC1)OCO3 (centres undefined)	> 200 µM	10.7 µM	–
CC(C)(C)NP(=O)(NC(C)(C)C)NC(C)(C)C	> 200 µM	107 µM	–
c1cc2c(cnc3cscc32)s1	–	–	inactive
CCOC(=O)c1cccn1S(=O)(=O)c1cc(Cl)ccc1NC(=O)CC	6.17 µM	195 µM	–
CCO[C@@H]1OC(=O)[C@H]2C(c3ccccc3)=NO[C@@H]12	> 275 µM	> 275 µM	–

Compound	EC50	IC50	outcome
Cn1cnc([N+](=O)[O-])c1Sc1nnnn1C	> 1020 µM	5.5 µM	–
O=c1sc2ccccc2n1CCSSCCn1c(=O)sc2ccccc21	> 200 µM	9.12 µM	–
Cc1cccc2c1[nH]c1[nH]c(=O)[nH]c(=O)c12	> 200 µM	151 µM	–
COc1cc(/C=N\NC(=O)C[N+](C)(C)C)cc(OC)c1OC	> 200 µM	> 200 µM	–
C=C1C(C)C2C(Cc3ccccc3)NC(=O)C23C(OC(C)=O)/C=C/C(C)(O)CC(C)C/C=C/C3C1O (centres undefined)	> 2 µM	0.0977 µM	–
COc1ccc(CC(=O)C2C(=O)N(C)c3ccccc32)cc1OC (centres undefined)	> 200 µM	44.7 µM	–
O=C1C(=O)c2ccccc2C(O)=C1CCCC1CCC2CCCCC2C1 (centres undefined)	> 200 µM	8.32 µM	–
N#C/C(=C\NC(=S)Nc1ccc(S(=O)(=O)Nc2ccccn2)cc1)C(N)=O	> 200 µM	> 200 µM	–
O=C1CCCCCCCCCCC1CN(Cc1ccccc1)Cc1ccccc1 (centres undefined)	–	–	inactive
OCC1(CO)CC2C3C=CC(C3)C2C1 (centres undefined)	> 229 µM	> 229 µM	–
COC(=O)NN=C(c1ccc(Cl)cc1)c1ccc(Cl)cc1	35.5 µM	174 µM	–
O=C(COc1ccc(OCC(=O)N2C(=O)CN(c3ccc(Cl)cc3)C2=S)cc1)N1C(=O)CN(c2ccc(Cl)cc2)C1=S	> 200 µM	43.7 µM	–
O=C1Cc2nc(CO)c(CO)c(CO)c2CO1	> 1050 µM	> 1050 µM	–
N#CCN1CCCCCC1	> 200 µM	> 200 µM	–
COc1cc2c(OC)cc1CSCc1sc(C)c(c1Br)CSC2	> 11.5 µM	> 11.5 µM	–
CCN(CC)CCOC(=O)c1cc2cc([N+](=O)[O-])ccc2oc1=O	> 214 µM	> 214 µM	–
Cc1cc2ccccc2c[n+]1CC(=O)CC([O-])(C(F)(F)F)C(F)(F)F	> 200 µM	95.5 µM	–
CN1C(=O)c2ccccc2Sc2ccccc21	6.46 µM	115 µM	–
CC1(Cn2ccc(=O)[nH]c2=O)CC(C2(C)OCCO2)C(=O)O1 (centres undefined)	> 813 µM	> 813 µM	–
CC(=O)NC(=O)NC1=NCCC(=O)N1CCc1c[nH]c2ccccc12	> 200 µM	> 200 µM	–
O=C(N=Nc1c(O)[nH]c2ccccc12)C(O)(c1ccccc1)c1ccccc1	> 200 µM	39.8 µM	–
Cc1ccc(N2C(=O)C(Cl)=C(Cl)C2=O)cc1	–	–	inactive

Compound	EC50	IC50	outcome
COCOc1ccc(C(=O)Oc2cccc3c2OC(C)(C)O3)c(OCOC)c1	> 200 µM	35.5 µM	–
CC12C(=O)N(C3CCC(=O)NC3=O)C(=O)C1C1CCC2C1 (centres undefined)	> 200 µM	> 200 µM	–
Cn1c(=O)c(C(=O)Nc2nc(C34CC5CC(CC(C5)C3)C4)cs2)c(O)c2ccccc21	> 100 µM	> 100 µM	–
C=CCCCN1CCCC(C)C1=S (centres undefined)	> 251 µM	> 251 µM	–
O=C(c1cccc(Cl)c1)c1c(O)c2ccccc2oc1=O	–	–	inactive
CS(=O)(=O)OCCCS(=O)(=O)O	> 200 µM	> 200 µM	–
Cc1occc1C(=S)Nc1ccc(Cl)c(C(=O)OCC(F)(F)F)c1	0.0195 µM	19.1 µM	–
CC[C@]1(Cc2ccc(OC)c(OC)c2)C=[N+]([O-])O[C@H](OC2CCCCC2c2ccccc2)[C@@H]1OC(C)=O (some centres undefined)	> 200 µM	30.2 µM	–
CC(CN=C(N)CSS(=O)(=O)O)OC12CC3CC(CC(C3)C1)C2 (centres undefined)	> 200 µM	35.5 µM	–
CN1C(=O)Cc2ccccc21	> 200 µM	151 µM	–
N#CCCC1(CCC#N)S(=O)(=O)OCCOS1(=O)=O	> 200 µM	44.7 µM	–
H-HSFNCGGEFFY-OH	–	–	inactive
C[n+]1c(-c2ccc(/C=N/NC(=O)C(=O)N/N=C/c3ccc(-c4cn5ccccc5[n+]4C)cc3)cc2)cn2ccccc21	56.2 µM and > 200 µM	74.1 µM and > 200 µM	–
CCCCCCCCCCCCCCCCCCOCC(COP(=O)([O-])OCC[N+](C)(C)C)OC (centres undefined)	> 10.2 µM	2.45 µM	–
CCOC(=O)P(=O)(O)c1ccc(N(C)Cc2ccccc2)cc1	> 200 µM	> 200 µM	–
C=C(C)C1CC2C(C)=C(OC(C)=O)C1n1c(=O)c3cc4ccccc4cc3c(=O)n12 (centres undefined)	> 46.8 µM	> 46.8 µM	–
CCOc1cc2c(cc1O)CC[C@@H]1[C@@H]2CC[C@]2(C)C(OS(=O)OC3CC[C@@H]4[C@H]5CCc6cc(O)c(OCC)cc6[C@@H]5CC[C@@]34C)CC[C@@H]12 (some centres undefined)	> 2 µM	0.537 µM	–
CCCCCCCC(=O)OCC1OC(n2cc(F)c(=O)[nH]c2=O)C(NC(=O)OCc2ccccc2)C(OC(=O)CCCCCCC)C1O (centres undefined)	> 10.7 µM	> 10.7 µM	–
S=c1nc(Oc2ccc(Cl)c(Cl)c2)[nH]c(=S)[nH]1	> 23.4 µM	> 23.4 µM	–
CN1CCN(C(=S)N(C)C(=O)c2cccs2)CC1	> 891 µM	> 891 µM	–
O=C1C(c2ccccc2)=C(c2ccccc2)C(c2ccc(Cc3ccc(C4=C(c5ccccc5)C(=O)C(c5ccccc5)=C4c4ccccc4)cc3)cc2)=C1c1ccccc1	> 1.35 µM	> 1.35 µM	–
Cc1cccc(N2C(=O)C(=O)C(c3nc4ccccc4s3)/C(=N/NC(=S)NN)C2=O)c1C (centres undefined)	> 269 µM	> 269 µM	–

Compound	EC50	IC50	outcome
Cc1cc(OCc2nnc3n2S(=O)(=O)c2ccccc2N3C)ccc1Cl	> 200 µM	> 200 µM	–
O=C(O)c1ccc(N=Nc2ccc(CCc3ccc(N=Nc4ccc(C(=O)O)cc4O)cc3S(=O)(=O)O)c(S(=O)(=O)O)c2)c(O)c1	19.5 µM	234 µM	–
COC1=C(N)C(=O)c2nc(C)ccc2C1=O	–	–	inactive
CC1=C(C(=O)Nc2ccccc2C)C(c2ccc(Cl)cc2)C(C(=O)Nc2ccccc2C)=C(C)N1	> 2.95 µM	> 2.95 µM	–
Cc1cccc(C(C)C)c1NC(=O)/C(Cc1c([N+](=O)[O-])cccc1[N+](=O)[O-])=N/NC(=O)CC#N	> 145 µM	> 145 µM	–
C[N+](C)([O-])CCCNc1c2ccccc2nc2cccc([N+](=O)[O-])c12	> 20 µM	0.186 µM	–
CCCCOC(=O)C1CN2C(=NC1(C(F)(F)F)C(F)(F)F)Sc1ccccc12 (centres undefined)	–	–	inactive
C/C(COc1ccccc1)=N\NC(N)=S	–	–	inactive
CC(=O)OC1(c2ccccc2)OC(=O)C(C)(C)c2ccccc21 (centres undefined)	> 158 µM	> 158 µM	–
COc1ccc(-c2c3ccccc3c(-c3ccc(OCCBr)cc3)c3ccccc23)cc1	> 100 µM	> 100 µM	–
CN1C(=O)/C(=N/N(c2ccccc2)c2ccccc2)c2ccccc21	> 200 µM	> 200 µM	–
C[C@H](CCCN1CCCCC1)[C@H]1CC[C@H]2[C@@H]3CC[C@@H]4C[C@H](O)CC[C@]4(C)[C@H]3CC[C@]12C	> 50.1 µM	1.82 µM	–
Cc1cc(NS(=O)(=O)c2ccc(NC(=O)c3cccc4c(N)c5ccccc5nc34)cc2)no1	> 93.3 µM	43.7 µM	–
CNC(=O)C(CC(C)C)NC(=O)CNC(=O)C(Cc1ccc(OCc2ccccc2)cc1)NC(=O)C(COCc1ccccc1)NC(C)=O (centres undefined) (Ac-S(Bn)Y(Bn)GL-NHMe; configuration not given here)	> 200 µM	37.2 µM	–
O=C(Nc1ccccc1)c1cc(C(=O)Nc2ccccc2)[nH]n1	–	–	inactive
CC(Nc1cccc(Cl)c1)c1ccncc1 (centres undefined)	> 200 µM	95.5 µM	–
CCc1c(Cc2[nH]c(Cc3[nH]c(C=O)c(C)c3CC)c(CC)c2CC)[nH]c(C=O)c1C	> 200 µM	> 200 µM	–
O=C(OCc1ccccc1)N1N=NC2C1C1CC(OCc3ccccc3)(OCc3ccccc3)C2O1 (centres undefined)	> 14.8 µM	> 14.8 µM	–
O=C(O)[C@@H]1CSCN1C(=O)[C@@H]1CCC(=S)N1	> 200 µM	> 200 µM	–
